Test results from US4971965A, “Antibiotics TAN-1057” (Takeda Chemical Industries, Ltd., priority 1988, dated 1990).
Converted amounts (≈) assume the structure as drawn. Where two headings read alike, the source gives them in different places.

Legend:
Experiment in all cases: Antibacterial activity against clinically isolated S. aureus (agar dilution MIC, Table 2)
Assay type in all cases: cell-based
[1] = tested on: Staphylococcus aureus N176-3
Description: (§1) DMPPC: Methicillin, KM: Kanamycin, GM: Gentamycin, EM: Erythromycin (Note
(§2) Determined by the agar dilution method. Medium: Mueller Hinton medium
(§3) (Difco, USA) Inoculum Size: 10^6 CFU/ml, 37° C.

[2] = tested on: Staphylococcus aureus N247-21
Description: as §1, §2, §3

[3] = tested on: Staphylococcus aureus N28
Description: as §1, §2, §3

[4] = tested on: Staphylococcus aureus FDA 209P
Description: as §1, §2, §3

[5] = tested on: Staphylococcus aureus N267
Description: as §1, §2, §3

[6] = tested on: Staphylococcus aureus C4
Description: as §1, §2, §3

[7] = tested on: Staphylococcus aureus TS-65
Description: as §1, §2, §3

[8] = tested on: Staphylococcus aureus N235
Description: as §1, §2, §3

[9] = tested on: Staphylococcus aureus N247-16
Description: as §1, §2, §3

[10] = tested on: Staphylococcus aureus N64
Description: as §1, §2, §3

[11] = tested on: Staphylococcus aureus C7
Description: as §1, §2, §3

[12] = tested on: Staphylococcus aureus N129
Description: as §1, §2, §3

[13] = tested on: Staphylococcus aureus N8
Description: as §1, §2, §3

[14] = tested on: Staphylococcus aureus N91
Description: as §1, §2, §3

[15] = tested on: Staphylococcus aureus N62
Description: as §1, §2, §3

[16] = tested on: Staphylococcus aureus N83
Description: as §1, §2, §3

[17] = tested on: Staphylococcus aureus N262
Description: as §1, §2, §3

[18] = tested on: Staphylococcus aureus N176
Description: as §1, §2, §3

[19] = tested on: Staphylococcus aureus C3
Description: as §1, §2, §3

[20] = tested on: Staphylococcus aureus N326
Description: as §1, §2, §3

[21] = tested on: Staphylococcus aureus TST-75
Description: as §1, §2, §3

[22] = tested on: Staphylococcus aureus N51
Description: as §1, §2, §3

[23] = tested on: Staphylococcus aureus N247
Description: as §1, §2, §3

[24] = tested on: Staphylococcus aureus C10
Description: as §1, §2, §3

[25] = tested on: Staphylococcus aureus N237
Description: as §1, §2, §3

[26] = tested on: Staphylococcus aureus N121
Description: as §1, §2, §3

[27] = tested on: Staphylococcus aureus N176-6
Description: as §1, §2, §3

NC[C@H]1O[C@H](O[C@H]2[C@H](O)[C@@H](O[C@H]3O[C@H](CO)[C@@H](O)[C@H](N)[C@H]3O)[C@H](N)C[C@@H]2N)[C@H](O)[C@@H](O)[C@@H]1O [KM, Kanamycin]
MIC ([1]; Staphylococcus aureus, N1763): 1.56 µg/mL (≈ 3.22 µM) | MIC ([2]; Staphylococcus aureus, N24721): > 100 µg/mL | MIC ([3]; Staphylococcus aureus, N28): > 100 µg/mL | MIC ([4]; Staphylococcus aureus, FDA209P): 0.39 µg/mL (≈ 0.805 µM) | MIC ([5]; Staphylococcus aureus, N267): > 100 µg/mL | MIC ([6]; Staphylococcus aureus, C4): > 100 µg/mL | MIC ([7]; Staphylococcus aureus, TS65): > 100 µg/mL | MIC ([8]; Staphylococcus aureus, N235): 100 µg/mL (≈ 206 µM) | MIC ([9]; Staphylococcus aureus, N24716): > 100 µg/mL | MIC ([10]; Staphylococcus aureus, N64): > 100 µg/mL | MIC ([11]; Staphylococcus aureus, C7): > 100 µg/mL | MIC ([12]; Staphylococcus aureus, N129): > 100 µg/mL | MIC ([13]; Staphylococcus aureus, N8): 1.56 µg/mL (≈ 3.22 µM) | MIC ([14]; Staphylococcus aureus, N91): > 100 µg/mL | MIC ([15]; Staphylococcus aureus, N62): 25 µg/mL (≈ 51.6 µM) | MIC ([16]; Staphylococcus aureus, N83): > 100 µg/mL | MIC ([17]; Staphylococcus aureus, N262): > 100 µg/mL | MIC ([18]; Staphylococcus aureus, N176): 3.13 µg/mL (≈ 6.46 µM) | MIC ([19]; Staphylococcus aureus, C3): > 100 µg/mL | MIC ([20]; Staphylococcus aureus, N326): > 100 µg/mL | MIC ([21]; Staphylococcus aureus, TST75): > 100 µg/mL | MIC ([22]; Staphylococcus aureus, N51): 3.13 µg/mL (≈ 6.46 µM) | MIC ([23]; Staphylococcus aureus, N247): > 100 µg/mL | MIC ([24]; Staphylococcus aureus, C10): > 100 µg/mL | MIC ([25]; Staphylococcus aureus, N237): > 100 µg/mL | MIC ([26]; Staphylococcus aureus, N121): > 100 µg/mL | MIC ([27]; Staphylococcus aureus, N1766): 1.56 µg/mL (≈ 3.22 µM)

Gentamycin [GM]
MIC ([1]; strain N176-3, agar dilution, Mueller Hinton medium, 10^6 CFU/ml): 0.39 µg/mL | MIC ([2]; strain N247-21, agar dilution, Mueller Hinton medium, 10^6 CFU/ml): 50 µg/mL | MIC ([3]; strain N28, agar dilution, Mueller Hinton medium, 10^6 CFU/ml): 0.39 µg/mL | MIC ([4]; strain FDA 209P, agar dilution, Mueller Hinton medium, 10^6 CFU/ml): ≤ 0.20 µg/mL | MIC ([5]; strain N267, agar dilution, Mueller Hinton medium, 10^6 CFU/ml): 100 µg/mL | MIC ([6]; strain C4, agar dilution, Mueller Hinton medium, 10^6 CFU/ml): 50 µg/mL | MIC ([7]; strain TS-65, agar dilution, Mueller Hinton medium, 10^6 CFU/ml): 100 µg/mL | MIC ([8]; strain N235, agar dilution, Mueller Hinton medium, 10^6 CFU/ml): > 100 µg/mL | MIC ([9]; strain N247-16, agar dilution, Mueller Hinton medium, 10^6 CFU/ml): 100 µg/mL | MIC ([10]; strain N64, agar dilution, Mueller Hinton medium, 10^6 CFU/ml): 0.78 µg/mL | MIC ([11]; strain C7, agar dilution, Mueller Hinton medium, 10^6 CFU/ml): > 100 µg/mL | MIC ([12]; strain N129, agar dilution, Mueller Hinton medium, 10^6 CFU/ml): 50 µg/mL | MIC ([13]; strain N8, agar dilution, Mueller Hinton medium, 10^6 CFU/ml): ≤ 0.20 µg/mL | MIC ([14]; strain N91, agar dilution, Mueller Hinton medium, 10^6 CFU/ml): 0.39 µg/mL | MIC ([15]; strain N62, agar dilution, Mueller Hinton medium, 10^6 CFU/ml): 3.13 µg/mL | MIC ([16]; strain N83, agar dilution, Mueller Hinton medium, 10^6 CFU/ml): ≤ 0.20 µg/mL | MIC ([17]; strain N262, agar dilution, Mueller Hinton medium, 10^6 CFU/ml): 50 µg/mL | MIC ([18]; strain N176, agar dilution, Mueller Hinton medium, 10^6 CFU/ml): 0.39 µg/mL | MIC ([19]; strain C3, agar dilution, Mueller Hinton medium, 10^6 CFU/ml): 100 µg/mL | MIC ([20]; strain N326, agar dilution, Mueller Hinton medium, 10^6 CFU/ml): > 100 µg/mL | MIC ([21]; strain TST-75, agar dilution, Mueller Hinton medium, 10^6 CFU/ml): > 100 µg/mL | MIC ([22]; strain N51, agar dilution, Mueller Hinton medium, 10^6 CFU/ml): 0.39 µg/mL | MIC ([23]; strain N247, agar dilution, Mueller Hinton medium, 10^6 CFU/ml): 50 µg/mL | MIC ([24]; strain C10, agar dilution, Mueller Hinton medium, 10^6 CFU/ml): > 100 µg/mL | MIC ([25]; strain N237, agar dilution, Mueller Hinton medium, 10^6 CFU/ml): > 100 µg/mL | MIC ([26]; strain N121, agar dilution, Mueller Hinton medium, 10^6 CFU/ml): > 100 µg/mL | MIC ([27]; strain N176-6, agar dilution, Mueller Hinton medium, 10^6 CFU/ml): 0.39 µg/mL

COc1cccc(OC)c1C(=O)N[C@@H]1C(=O)N2[C@@H]1SC(C)(C)[C@@H]2C(=O)O [DMPPC, Methicillin]
MIC ([1]; Staphylococcus aureus, N1763, strain N176-3, agar dilution, Mueller Hinton medium, 10^6 CFU/ml, read-out: MIC): 50 µg/mL (≈ 131 µM) | MIC ([2]; Staphylococcus aureus, N24721, strain N247-21, agar dilution, Mueller Hinton medium, 10^6 CFU/ml, read-out: MIC): 200 µg/mL (≈ 526 µM) | MIC ([3]; Staphylococcus aureus, strain N28, agar dilution, Mueller Hinton medium, 10^6 CFU/ml, read-out: MIC): 1600 µg/mL (≈ 4210 µM) | MIC ([4]; Staphylococcus aureus, FDA209P, strain FDA 209P, agar dilution, Mueller Hinton medium, 10^6 CFU/ml, read-out: MIC): 1.56 µg/mL (≈ 4.1 µM) | MIC ([5]; Staphylococcus aureus, strain N267, agar dilution, Mueller Hinton medium, 10^6 CFU/ml, read-out: MIC): 100 µg/mL (≈ 263 µM) | MIC ([6]; Staphylococcus aureus, strain C4, agar dilution, Mueller Hinton medium, 10^6 CFU/ml, read-out: MIC): 50 µg/mL (≈ 131 µM) | MIC ([7]; Staphylococcus aureus, TS65, strain TS-65, agar dilution, Mueller Hinton medium, 10^6 CFU/ml, read-out: MIC): > 1600 µg/mL | MIC ([8]; Staphylococcus aureus, strain N235, agar dilution, Mueller Hinton medium, 10^6 CFU/ml, read-out: MIC): 1.56 µg/mL (≈ 4.1 µM) | MIC ([9]; Staphylococcus aureus, N24716, strain N247-16, agar dilution, Mueller Hinton medium, 10^6 CFU/ml, read-out: MIC): > 1600 µg/mL | MIC ([10]; Staphylococcus aureus, strain N64, agar dilution, Mueller Hinton medium, 10^6 CFU/ml, read-out: MIC): 1600 µg/mL (≈ 4210 µM) | MIC ([11]; Staphylococcus aureus, strain C7, agar dilution, Mueller Hinton medium, 10^6 CFU/ml, read-out: MIC): 50 µg/mL (≈ 131 µM) | MIC ([12]; Staphylococcus aureus, strain N129, agar dilution, Mueller Hinton medium, 10^6 CFU/ml, read-out: MIC): 400 µg/mL (≈ 1050 µM) | MIC ([13]; Staphylococcus aureus, strain N8, agar dilution, Mueller Hinton medium, 10^6 CFU/ml, read-out: MIC): 1.56 µg/mL (≈ 4.1 µM) | MIC ([14]; Staphylococcus aureus, strain N91, agar dilution, Mueller Hinton medium, 10^6 CFU/ml, read-out: MIC): 1.56 µg/mL (≈ 4.1 µM) | MIC ([15]; Staphylococcus aureus, strain N62, agar dilution, Mueller Hinton medium, 10^6 CFU/ml, read-out: MIC): 3.13 µg/mL (≈ 8.23 µM) | MIC ([16]; Staphylococcus aureus, strain N83, agar dilution, Mueller Hinton medium, 10^6 CFU/ml, read-out: MIC): 3.13 µg/mL (≈ 8.23 µM) | MIC ([17]; Staphylococcus aureus, strain N262, agar dilution, Mueller Hinton medium, 10^6 CFU/ml, read-out: MIC): 100 µg/mL (≈ 263 µM) | MIC ([18]; Staphylococcus aureus, strain N176, agar dilution, Mueller Hinton medium, 10^6 CFU/ml, read-out: MIC): 12.5 µg/mL (≈ 32.9 µM) | MIC ([19]; Staphylococcus aureus, strain C3, agar dilution, Mueller Hinton medium, 10^6 CFU/ml, read-out: MIC): 50 µg/mL (≈ 131 µM) | MIC ([20]; Staphylococcus aureus, strain N326, agar dilution, Mueller Hinton medium, 10^6 CFU/ml, read-out: MIC): 1600 µg/mL (≈ 4210 µM) | MIC ([21]; Staphylococcus aureus, TST75, strain TST-75, agar dilution, Mueller Hinton medium, 10^6 CFU/ml, read-out: MIC): 12.5 µg/mL (≈ 32.9 µM) | MIC ([22]; Staphylococcus aureus, strain N51, agar dilution, Mueller Hinton medium, 10^6 CFU/ml, read-out: MIC): 1.56 µg/mL (≈ 4.1 µM) | MIC ([23]; Staphylococcus aureus, strain N247, agar dilution, Mueller Hinton medium, 10^6 CFU/ml, read-out: MIC): 50 µg/mL (≈ 131 µM) | MIC ([24]; Staphylococcus aureus, strain C10, agar dilution, Mueller Hinton medium, 10^6 CFU/ml, read-out: MIC): 800 µg/mL (≈ 2100 µM) | MIC ([25]; Staphylococcus aureus, strain N237, agar dilution, Mueller Hinton medium, 10^6 CFU/ml, read-out: MIC): 20 µg/mL (≈ 52.6 µM) | MIC ([26]; Staphylococcus aureus, strain N121, agar dilution, Mueller Hinton medium, 10^6 CFU/ml, read-out: MIC): 50 µg/mL (≈ 131 µM) | MIC ([27]; Staphylococcus aureus, N1766, strain N176-6, agar dilution, Mueller Hinton medium, 10^6 CFU/ml, read-out: MIC): 200 µg/mL (≈ 526 µM)
